{
  "source": "patent US9657014B2",
  "about": "“Substituted 1,6-naphthyridines” (Hoffmann-La Roche Inc., priority 2012, dated 2017)",
  "data": [
    {"system": "human embryonic stem cell derived neural stem cells (NSCs)", "test": "Neural stem cell proliferation assay (neurogenesis assay)", "assay_type": "cell-based", "conditions": "Homo sapiens, Neural stem cell, 96 h; Table 1, novel compounds; concentration at which 150% activity of control (100%) is reached; ATP levels (CellTiterGlo) after 4 days incubation", "method_in_brief": "(§1)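 NSCs derived from human ES cells by dual SMAD inhibition, seeded on polyornithin/laminin, dosed 4 h later (11 points, 8 μM to 8 nM). After 4 days at 37° C, ATP luminescence read; response = compound/medium control ×100, EC150 = concentration giving 150% of control.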", "units": {"EC (150% of control)": "µM"}, "values": [
      {"compound": "O=C(NCC(F)(F)F)c1ccc2cncc(-c3cccc(F)c3)c2n1", "note": "[Example 123, 8-(3-Fluorophenyl)-N-(2,2,2-trifluoroethyl)-1,6-naphthyridine-2-carboxamide]", "EC (150% of control)": 0.38},
      {"compound": "O=C(NCC(F)(F)F)c1ccc2cncc(-c3ccc(F)cc3)c2n1", "note": "[Example 124, 8-(4-Fluorophenyl)-N-(2,2,2-trifluoroethyl)-1,6-naphthyridine-2-carboxamide]", "EC (150% of control)": 0.07},
      {"compound": "O=C(NCC(F)(F)F)c1ccc2cncc(-c3ccccc3F)c2n1", "note": "[Example 125, 8-(2-Fluorophenyl)-N-(2,2,2-trifluoroethyl)-1,6-naphthyridine-2-carboxamide]", "EC (150% of control)": 0.04},
      {"compound": "O=C(NCC(F)(F)F)c1ccc2cncc(-c3ccc(F)cc3F)c2n1", "note": "[Example 126, 8-(2,4-Difluorophenyl)-N-(2,2,2-trifluoroethyl)-1,6-naphthyridine-2-carboxamide]", "EC (150% of control)": 0.06},
      {"compound": "O=C(NCC(F)(F)F)c1ccc2cncc(-c3ccc(F)c(F)c3)c2n1", "note": "[Example 127, 8-(3,4-Difluorophenyl)-N-(2,2,2-trifluoroethyl)-1,6-naphthyridine-2-carboxamide]", "EC (150% of control)": 0.23},
      {"compound": "O=C(NCC(F)(F)F)c1ccc2cncc(-c3cc(F)ccc3F)c2n1", "note": "[Example 128, 8-(2,5-Difluorophenyl)-N-(2,2,2-trifluoroethyl)-1,6-naphthyridine-2-carboxamide]", "EC (150% of control)": 0.13},
      {"compound": "CS(=O)(=O)CCNC(=O)c1ccc2cncc(-c3ccc(F)cc3F)c2n1", "note": "[Example 129, 8-(2,4-Difluorophenyl)-N-(2-(methylsulfonyl)ethyl)-1,6-naphthyridine-2-carboxamide]", "EC (150% of control)": 0.06},
      {"compound": "O=C(c1ccc2cncc(-c3ccc(Cl)cc3F)c2n1)N1CCC(O)C1", "note": "(centres unmarked) [Example 130, (8-(4-Chloro-2-fluorophenyl)-1,6-naphthyridin-2-yl)(3-hydroxypyrrolidin-1-yl)methanone]", "EC (150% of control)": 0.13},
      {"compound": "O=C(c1ccc2cncc(-c3ccc(Cl)c(F)c3)c2n1)N1CCC(O)C1", "note": "(centres unmarked) [Example 131, (8-(4-Chloro-3-fluorophenyl)-1,6-naphthyridin-2-yl)(3-hydroxypyrrolidin-1-yl)methanone]", "EC (150% of control)": 0.07},
      {"compound": "CS(=O)(=O)c1ccccc1CNC(=O)c1ccc2cncc(-c3ccc(Cl)cc3)c2n1", "note": "[Example 132, 8-(4-Chlorophenyl)-N-(2-(methylsulfonyl)benzyl)-1,6-naphthyridine-2-carboxamide]", "EC (150% of control)": 0.03},
      {"compound": "CS(=O)(=O)CCNC(=O)c1ccc2cncc(-c3ccccc3F)c2n1", "note": "[Example 133, 8-(2-Fluorophenyl)-N-(2-(methylsulfonyl)ethyl)-1,6-naphthyridine-2-carboxamide]", "EC (150% of control)": 0.23},
      {"compound": "CS(=O)(=O)CCNC(=O)c1ccc2cncc(-c3cccc(F)c3)c2n1", "note": "[Example 134, 8-(3-Fluorophenyl)-N-(2-(methylsulfonyl)ethyl)-1,6-naphthyridine-2-carboxamide]", "EC (150% of control)": 0.22},
      {"compound": "CS(=O)(=O)CCNC(=O)c1ccc2cncc(-c3ccc(F)cc3)c2n1", "note": "[Example 135, 8-(4-Fluorophenyl)-N-(2-(methylsulfonyl)ethyl)-1,6-naphthyridine-2-carboxamide]", "EC (150% of control)": 0.08},
      {"compound": "CC(C)Cc1cncc2ccc(C(N)=O)nc12", "note": "[Example 136, 8-Isobutyl-1,6-naphthyridine-2-carboxamide]", "EC (150% of control)": 0.04},
      {"compound": "CS(=O)(=O)CCNC(=O)c1ccc2cncc(-c3ccc(F)c(F)c3)c2n1", "note": "[Example 137, 8-(3,4-Difluorophenyl)-N-(2-(methylsulfonyl)ethyl)-1,6-naphthyridine-2-carboxamide]", "EC (150% of control)": 0.35},
      {"compound": "CS(=O)(=O)CCNC(=O)c1ccc2cncc(-c3cc(F)ccc3F)c2n1", "note": "[Example 138, 8-(2,5-Difluorophenyl)-N-(2-(methylsulfonyl)ethyl)-1,6-naphthyridine-2-carboxamide]", "EC (150% of control)": 0.26},
      {"compound": "CS(=O)(=O)CCNC(=O)c1ccc2cncc(-c3ccc(Cl)cc3F)c2n1", "note": "[Example 139, 8-(4-Chloro-2-fluorophenyl)-N-(2-(methylsulfonyl)ethyl)-1,6-naphthyridine-2-carboxamide]", "EC (150% of control)": 0.06},
      {"compound": "CN(C)c1cc(-c2cncc3ccc(C(N)=O)nc23)ccn1", "note": "[Example 140, 8-(2-(Dimethylamino)pyridin-4-yl)-1,6-naphthyridine-2-carboxamide]", "EC (150% of control)": 0.147},
      {"compound": "NC(=O)c1ccc2cncc(N3CCOCC3)c2n1", "note": "[Example 142, 8-Morpholino-1,6-naphthyridine-2-carboxamide]", "EC (150% of control)": 0.94},
      {"compound": "COc1cccc(-c2cncc3ccc(C(N)=O)nc23)c1", "note": "[Example 143, 8-(3-Methoxyphenyl)-1,6-naphthyridine-2-carboxamide]", "EC (150% of control)": 0.24},
      {"compound": "O=C(NCCO)c1ccc2cncc(-c3cccc(O)c3)c2n1", "note": "[Example 144, N-(2-Hydroxyethyl)-8-(3-hydroxyphenyl)-1,6-naphthyridine-2-carboxamide]", "EC (150% of control)": 0.16},
      {"compound": "CCCCCCNC(=O)c1ccc2cncc(-c3ccc(Cl)cc3)c2n1", "note": "[Example 145, 8-(4-Chlorophenyl)-N-hexyl-1,6-naphthyridine-2-carboxamide]", "EC (150% of control)": 0.21},
      {"compound": "NC(=O)c1ccc2cncc(C3=CCOCC3)c2n1", "note": "[Example 146, 8-(3,6-Dihydro-2H-pyran-4-yl)-1,6-naphthyridine-2-carboxamide]", "EC (150% of control)": 0.21},
      {"compound": "CCCCCCNC(=O)c1ccc(-c2cncc3ccc(C(N)=O)nc23)cc1", "note": "[Example 147, 8-(4-(Hexylcarbamoyl)phenyl)-1,6-naphthyridine-2-carboxamide]", "EC (150% of control)": 0.09},
      {"compound": "CCCCCCNC(=O)Cc1cccc(-c2cncc3ccc(C(N)=O)nc23)c1", "note": "[Example 148, 8-(3-(2-(Hexylamino)-2-oxoethyl)phenyl)-1,6-naphthyridine-2-carboxamide]", "EC (150% of control)": 0.18},
      {"compound": "CCCCCCC(=O)NCc1ccc(-c2cncc3ccc(C(N)=O)nc23)cc1", "note": "[Example 149, 8-(4-(Heptanamidomethyl)phenyl)-1,6-naphthyridine-2-carboxamide]", "EC (150% of control)": 0.07},
      {"compound": "CCCCCCNC(=O)Cc1ccc(-c2cncc3ccc(C(N)=O)nc23)cc1", "note": "[Example 150, 8-(4-(2-(Hexylamino)-2-oxoethyl)phenyl)-1,6-naphthyridine-2-carboxamide]", "EC (150% of control)": 0.04},
      {"compound": "CCCCCCC(=O)NCc1cccc(-c2cncc3ccc(C(N)=O)nc23)c1", "note": "[Example 151, 8-(3-(Heptanamidomethyl)phenyl)-1,6-naphthyridine-2-carboxamide]", "EC (150% of control)": 0.03},
      {"compound": "Cc1cc2cncc(-c3ccc(Cl)cc3)c2nc1C(N)=O", "note": "[Example 152, 8-(4-Chlorophenyl)-3-methyl-1,6-naphthyridine-2-carboxamide]", "EC (150% of control)": 0.34},
      {"compound": "Cc1cc2cncc(-c3ccc(F)cc3)c2nc1C(N)=O", "note": "[Example 153, 8-(4-Fluorophenyl)-3-methyl-1,6-naphthyridine-2-carboxamide]", "EC (150% of control)": 0.79},
      {"compound": "Cc1cc2cncc(-c3ccc(OC(F)(F)F)cc3)c2nc1C(N)=O", "note": "[Example 154, 3-Methyl-8-(4-(trifluoromethoxy)phenyl)-1,6-naphthyridine-2-carboxamide]", "EC (150% of control)": 2.19}
    ]},
    {"system": "human embryonic stem cell derived neural stem cells (NSCs)", "test": "Neural stem cell proliferation assay (neurogenesis assay)", "assay_type": "cell-based", "conditions": "Table 1, novel compounds; concentration at which 150% activity of control (100%) is reached; ATP levels (CellTiterGlo) after 4 days incubation", "method_in_brief": "as §1", "units": {"EC150": "µM"}, "values": [
      {"compound": "CC1(CNC(=O)c2ccc3cncc(-c4ccc(Cl)cc4)c3n2)CCC(=O)N1", "note": "(centres unmarked) [Example 141, 8-(4-Chlorophenyl)-N-((2-methyl-5-oxopyrrolidin-2-yl)methyl)-1,6-naphthyridine-2-carboxamide]", "EC150": 0.01}
    ]}
  ]
}
